ChEMBL document CHEMBL1255371, “Clonal spread of highly beta-lactam-resistant Streptococcus pneumoniae isolates in Taiwan” (2008)
Values after ≈ are worked out from the molar mass of the structure shown.

Key:
Assay type in all cases: functional
Streptococcus pneumoniae [1] = experiment: Antimicrobial activity against beta-lactam resistant Streptococcus pneumoniae clinical isolate by broth dilution method
Streptococcus pneumoniae [2] = experiment: Antimicrobial activity against Streptococcus pneumoniae in meningitis patients by broth dilution method
Streptococcus pneumoniae [3] = experiment: Antimicrobial activity against Streptococcus pneumoniae isolated from non-meningitis patient assessed as percent susceptible isolates by CLSI method
Streptococcus pneumoniae [4] = experiment: Antimicrobial activity against Streptococcus pneumoniae isolated from meningitis patient assessed as percent susceptible isolates by CLSI method
Streptococcus pneumoniae [5] = experiment: Antimicrobial activity against Streptococcus pneumoniae isolated from cerebrospinal fluid of patient with bacterial infection by broth dilution method
Streptococcus pneumoniae [6] = experiment: Antimicrobial activity against Streptococcus pneumoniae isolated from non-meningitis patient assessed as percent resistant isolates by CLSI method
Streptococcus pneumoniae [7] = experiment: Antimicrobial activity against Streptococcus pneumoniae in non-meningitis patients by broth dilution method
Streptococcus pneumoniae [8] = experiment: Antimicrobial activity against Streptococcus pneumoniae isolated from patient with bacterial infection by broth dilution method
Streptococcus pneumoniae [9] = experiment: Antimicrobial activity against Streptococcus pneumoniae isolated from meningitis patient assessed as percent resistant isolates by CLSI method

For CO/N=C(\C(=O)N[C@@H]1C(=O)N2C(C(=O)O)=C(COC(C)=O)CS[C@H]12)c1csc(N)n1 [CEFOTAXIME], the MIC50 (Streptococcus pneumoniae [1]) was 0.5 µg/mL (≈ 1.1 µM), the MIC90 (Streptococcus pneumoniae [1]) was 1 µg/mL (≈ 2.2 µM) and the MIC (Streptococcus pneumoniae [2]) was 1 µg/mL (≈ 2.2 µM). For the same compound, the Activity (Streptococcus pneumoniae [3]) was 93.1%, the Activity (Streptococcus pneumoniae [4]) was 58.5% and the MIC (Streptococcus pneumoniae [5]) was 1 µg/mL (≈ 2.2 µM). It also gave an Activity (Streptococcus pneumoniae [6]) of 1.4%, an MIC (Streptococcus pneumoniae [7]) of less than 2 µg/mL and an MIC (Streptococcus pneumoniae [8]) of no less than 2 µg/mL. The Activity (Streptococcus pneumoniae [9]) was 6.9%.
For CCCCCCCCCC(=O)N[C@@H](Cc1c[nH]c2ccccc12)C(=O)N[C@H](CC(N)=O)C(=O)N[C@@H](CC(=O)O)C(=O)N[C@@H]1C(=O)NCC(=O)N[C@@H](CCCN)C(=O)N[C@@H](CC(=O)O)C(=O)N[C@H](C)C(=O)N[C@@H](CC(=O)O)C(=O)NCC(=O)N[C@H](CO)C(=O)N[C@@H]([C@H](C)CC(=O)O)C(=O)N[C@@H](CC(=O)c2ccccc2N)C(=O)O[C@@H]1C, the MIC50 (Streptococcus pneumoniae [1]) was 0.06 µg/mL (≈ 0.037 µM) and the MIC90 (Streptococcus pneumoniae [1]) was 0.06 µg/mL (≈ 0.037 µM).
CN(C)c1cc(NC(=O)CNC(C)(C)C)c(O)c2c1C[C@H]1C[C@H]3[C@H](N(C)C)C(O)=C(C(N)=O)C(=O)[C@@]3(O)C(O)=C1C2=O [TIGECYCLINE] showed an MIC (Streptococcus pneumoniae [1]) of no more than 0.015 µg/mL, an MIC50 (Streptococcus pneumoniae [1]) of no more than 0.015 µg/mL and an MIC90 (Streptococcus pneumoniae [1]) of 0.03 µg/mL (≈ 0.0512 µM).
CO/N=C1\CN(c2nc3c(cc2F)c(=O)c(C(=O)O)cn3C2CC2)CC1CN (stereo unspecified) [GEMIFLOXACIN] showed an MIC (Streptococcus pneumoniae [1]) of no more than 0.03 µg/mL, an MIC50 (Streptococcus pneumoniae [1]) of no more than 0.03 µg/mL and an MIC90 (Streptococcus pneumoniae [1]) of no more than 0.03 µg/mL. It also gave an Activity (Streptococcus pneumoniae [4]) of 98.9% and an Activity (Streptococcus pneumoniae [9]) of 1.1%.
C[C@H]1COc2c(N3CCN(C)CC3)c(F)cc3c(=O)c(C(=O)O)cn1c23.C[C@H]1COc2c(N3CCN(C)CC3)c(F)cc3c(=O)c(C(=O)O)cn1c23.O [LEVOFLOXACIN] was tested, and the MIC50 (Streptococcus pneumoniae [1]) was 1 µg/mL, the MIC90 (Streptococcus pneumoniae [1]) was 1 µg/mL and the Activity (Streptococcus pneumoniae [4]) was 98.1%. It also gave an Activity (Streptococcus pneumoniae [9]) of 1.9%.
CN[C@H](CC(C)C)C(=O)N[C@H]1C(=O)N[C@@H](CC(N)=O)C(=O)N[C@H]2C(=O)N[C@H]3C(=O)N[C@H](C(=O)N[C@H](C(=O)O)c4cc(O)cc(O)c4-c4cc3ccc4O)[C@H](O)c3ccc(c(Cl)c3)Oc3cc2cc(c3O[C@@H]2O[C@H](CO)[C@@H](O)[C@H](O)[C@H]2O[C@H]2C[C@](C)(N)[C@H](O)[C@H](C)O2)Oc2ccc(cc2Cl)[C@H]1O [VANCOMYCIN] showed an MIC50 (Streptococcus pneumoniae [1]) of 0.25 µg/mL (≈ 0.173 µM), an MIC90 (Streptococcus pneumoniae [1]) of 0.5 µg/mL (≈ 0.345 µM) and an Activity (Streptococcus pneumoniae [4]) of 100%. For the same compound, the Activity (Streptococcus pneumoniae [9]) was 0%.
Nc1nc(/C(=N/O)C(=O)N[C@@H]2C(=O)N3C(C(=O)O)=C(/C=C4\CCN([C@@H]5CCNC5)C4=O)CS[C@H]23)ns1 [CEFTOBIPROLE] showed an MIC50 (Streptococcus pneumoniae [1]) of 0.25 µg/mL (≈ 0.468 µM) and an MIC90 (Streptococcus pneumoniae [1]) of 0.5 µg/mL (≈ 0.935 µM).
Compound CC[C@H]1OC(=O)[C@H](C)[C@@H](O[C@H]2C[C@@](C)(OC)[C@@H](O)[C@H](C)O2)[C@H](C)[C@@H](O[C@@H]2O[C@H](C)C[C@H](N(C)C)[C@H]2O)[C@](C)(O)C[C@@H](C)C(=O)[C@H](C)[C@@H](O)[C@]1(C)O [ERYTHROMYCIN] has an MIC50 (Streptococcus pneumoniae [1]) greater than 32 µg/mL, an MIC90 (Streptococcus pneumoniae [1]) greater than 32 µg/mL and an Activity (Streptococcus pneumoniae [4]) of 6.9%. It also gave an Activity (Streptococcus pneumoniae [9]) of 90.9%.
In the case of CC1(C)S[C@@H]2[C@H](NC(=O)Cc3ccccc3)C(=O)N2[C@H]1C(=O)O [PENICILLIN G], the MIC50 (Streptococcus pneumoniae [1]) is reported as 1 µg/mL (≈ 2.99 µM), the MIC90 (Streptococcus pneumoniae [1]) is reported as 2 µg/mL (≈ 5.98 µM) and the MIC (Streptococcus pneumoniae [2]) is reported as no less than 0.1 µg/mL. The Activity (Streptococcus pneumoniae [4]) was 16.8%, the MIC (Streptococcus pneumoniae [7]) was no less than 4 µg/mL and the MIC (Streptococcus pneumoniae [8]) was no less than 0.1 µg/mL. The Activity (Streptococcus pneumoniae [9]) was 44.5%.
